In patent publication EP1614683B1, “Indazole compounds and pharmaceutical compositions for inhibiting protein kinases, and methods for their use” (priority 1999, dated 2001):
Like-named read-outs stand apart in the source and are kept apart here.

What was measured:
[1] = vehicle PEG400:H2O pH 2.3 30:70
in vivo = settings: mouse, plasma, pH 2.3
[2] = biological target: T1, phosphorylated Tie-2 (aa 775-1122) (Homo sapiens, UniProt Q02763); experiment: TIE-2 spectrophotometric assay; format: biochemical; settings: Table 5; 1 µM; bold values spectrophotometric assay, non-bolded DELFIA assay (bold not visible here); read-out: % Inhibition @ 1 µM Tie2-P
T1 construct: 4 to 12 nM phosphorylated Tie-2 (aa 775-1122); made in house; host or cells: insect cells
Outline: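 Human phosphorylated Tie-2 kinase activity was measured spectrophotometrically by coupling ADP formation, from phosphoryl transfer to poly(Glu4 Tyr), to NADH oxidation via pyruvate kinase and lactate dehydrogenase. Absorbance loss at 340 nm was read on a Beckman DU650. Reactions held 1 mM phosphoenolpyruvate, 0.24 mM NADH, 40 mM MgCl2, 5 mM DTT, 0.5 mM ATP, and 15 units/mL each of PK and LDH in 100 mM HEPES, pH 7.5.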

[3] = biological target: unphosphorylated VEGF-R2Δ50 (Homo sapiens, UniProt P35968, DEL940-989/E990V); experiment: biochemical; settings: read-out: FLVK ** (% inhibition)
[4] = tested on: lung cancer cells (line MV522); experiment: Cancer cell proliferation (MV522) assay; format: cell-based; settings: MV522; Table 1; read-out: MV522 IC50
Outline: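 MTT reduction read-out was taken 72 h after addition of test agents, with no prior serum starvation. Cells were plated beforehand at two thousand per well in RPMI1640 containing 10% FBS and 2 mM glutamine and allowed one day to adhere.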

human FGF-R1 = human FGF-R1 (Homo sapiens, UniProt P11362, C488A/C584S/L457V); experiment: FGF-R spectrophotometric assay; format: biochemical; settings: Table 1; compound concentration 1 µM; read-out: FGF-P* (% inhibition)
Method: The spectrophotometric assay was carried out as described above for VEGF-R2, except for the following changes in concentration: FGF-R = 50 nM, ATP = 2 mM, and poly(E4Y1) =15 mM.

[5] = tested on: VEGF dependent retinal vascular development; experiment: In vivo assay of retinal vascular development in neonatal rats; set-up: species or system rat; settings: Model P8, intravitreal, vehicle PEG/water 50:50
Outline: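 Neonatal rats given compound by intravitreal injection, vehicle usually 50% PEG 400/50% 300 mM sucrose, with vehicle in contralateral eye. Retinas removed six days later, ADPase-stained and flat-mounted; stained vessel area quantified by imaging and expressed as percent regression versus vehicle eye.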

[6] = tested on: VEGF dependent retinal neovascularization; experiment: Neonatal rat model of retinopathy of prematurity; format: in vivo; settings: Model ROP, intravitreal, 10 mg/ml, vehicle PEG/water 70:30
[7] = biological target: phosphorylated VEGF-R2Δ50 (Homo sapiens, UniProt P35968, DEL940-989/E990V); experiment: biochemical; settings: read-out: FLVK -P** (% inhibition)
Chain of phosphorylated VEGF-R2Δ50 (P35968 with tags, fused parts or gaps DEL940-989/E990V limits assumed): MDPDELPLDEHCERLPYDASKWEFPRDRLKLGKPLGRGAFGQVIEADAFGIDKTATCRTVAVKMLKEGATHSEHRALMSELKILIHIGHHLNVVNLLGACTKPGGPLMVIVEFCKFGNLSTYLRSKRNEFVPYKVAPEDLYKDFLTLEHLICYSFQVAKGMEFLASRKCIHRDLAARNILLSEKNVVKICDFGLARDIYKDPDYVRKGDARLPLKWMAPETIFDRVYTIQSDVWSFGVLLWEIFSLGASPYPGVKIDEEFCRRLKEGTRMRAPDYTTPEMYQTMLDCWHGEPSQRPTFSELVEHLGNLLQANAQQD

Chain of human FGF-R1 (P11362 456-766 L457V/C488A/C584S): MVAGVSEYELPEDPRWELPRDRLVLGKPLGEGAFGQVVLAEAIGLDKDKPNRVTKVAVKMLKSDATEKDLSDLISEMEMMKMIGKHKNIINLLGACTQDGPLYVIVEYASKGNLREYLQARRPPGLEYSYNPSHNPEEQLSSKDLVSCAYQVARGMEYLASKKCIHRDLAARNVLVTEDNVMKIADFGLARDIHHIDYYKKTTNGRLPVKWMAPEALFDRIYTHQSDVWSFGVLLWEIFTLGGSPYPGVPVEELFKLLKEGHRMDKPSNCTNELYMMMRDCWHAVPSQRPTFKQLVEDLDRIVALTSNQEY
Chain of unphosphorylated VEGF-R2Δ50 (P35968 with tags, fused parts or gaps DEL940-989/E990V limits assumed): as the sequence (P35968 with tags, fused parts or gaps DEL940-989/E990V limits assumed) above
T1 sequence (Q02763 775-1122): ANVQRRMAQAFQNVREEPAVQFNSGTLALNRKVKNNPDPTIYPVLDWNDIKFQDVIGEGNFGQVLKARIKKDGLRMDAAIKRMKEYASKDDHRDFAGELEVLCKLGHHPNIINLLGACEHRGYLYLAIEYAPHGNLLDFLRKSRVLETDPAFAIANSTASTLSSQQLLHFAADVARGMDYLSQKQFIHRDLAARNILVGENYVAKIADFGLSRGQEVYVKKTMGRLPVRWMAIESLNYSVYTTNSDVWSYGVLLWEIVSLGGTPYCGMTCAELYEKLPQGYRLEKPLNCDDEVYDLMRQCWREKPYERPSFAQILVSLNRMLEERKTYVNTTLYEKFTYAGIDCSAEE

Row | Compound | inhibition at 1 µM [2] [%] | inhibition at 0.05 µM [3] [%] | IC50 [4] [µM] | inhibition at 1 µM (human FGF-R1) [%] | further results
1 | CCn1nc(C)cc1C(=O)Nc1cccc(Oc2ccc3c(/C=C/c4ccccn4)n[nH]c3c2)c1 [Reference Example 31(d), 6-[3-((1-Ethyl-3-methyl-1H-pyrazol-5-yl)carboxamido)phenoxy]-3-E-[2-(pridin-2-yl)ethenyl]-1H-indazole] | 46 | 96 | 5.2 | – | T1/2 ([1]; IP, 25 mg/kg): 5.3 h; T1/2 ([1]; PO, 10 mg/kg): 3.1 h; T1/2 ([1]; PO, 25 mg/kg): 1.9 h; T1/2 ([1]; PO, 50 mg/kg): 39.3 h; AUC (in vivo; ip, 25 mg/kg): 238 µg·h/mL; AUC (in vivo; po, 10 mg/kg): 49.1 µg·h/mL; AUC (in vivo; po, 25 mg/kg): 204 µg·h/mL; AUC (in vivo; po, 50 mg/kg): 431 µg·h/mL
2 | C#CCNC(=O)c1ccccc1Sc1ccc2c(/C=C/c3ccccn3)n[nH]c2c1 [Reference Example 35(cc), 6-[2-(2-Propynylcarbamoyl)phenylsulfany]-3-E-[2-(pyridin-2-yl)ethenyl]-1H-indazole] | 47 | 89 | – | 74 | –
3 | CCONC(=O)c1ccccc1Sc1ccc2c(/C=C/c3ccccn3)n[nH]c2c1 [Reference Example 35(dd), 6-[2-(ethoxycarbamoyl)phenylsufanyl]-3-E-[2-(pyridin-2-yl)ethenyl]-1H-indazole] | 48 | – | – | – | Initial Evaluation ([5]; 5 mg/ml): ++/+++ var
4 | CC(C)ONC(=O)c1ccccc1Sc1ccc2c(/C=C/c3ccccn3)n[nH]c2c1 [Reference Example 35(k)] | 55 | 85 | – | 34 | –
5 | O=C(NNc1ccccn1)c1ccccc1Sc1ccc2c(/C=C/c3ccccn3)n[nH]c2c1 [Reference Example 35(n), 6-[2-(N^2-(pyrid-2-ylhydrazino)carbonyl)phenylsulfanyl]-3-E-[2-(pyridin-2-yl)ethenyl]-1H-indazole] | 82 | – | 5.1 | – | –
6 | CCn1nc(C)cc1C(=O)Nc1cccc(C(=O)c2ccc3c(/C=C/c4ccccn4)n[nH]c3c2)c1 [Reference Example 41(a), 6-[3-((1-Ethyl-3-methyl-1H-pyrazol-5-yl)carboxamido)benzoyl]. 3-E-[2-(pyridin-2-yl)ethenyl]-1H-indazole] | 50 | – | – | – | % Inhibition ([5]; 0.5 mg/ml): 0%; % Inhibition [6]: 64%; Initial Evaluation [6]: +++ (three pluses give to retinas with near total regression (approximately 75% or greater)); inhibition at 0.05 µM [7]: 94%
7 | CCn1nc(C)cc1C(=O)Nc1cc(C(=O)c2ccc3c(/C=C/c4ccccn4)n[nH]c3c2)ccc1C [Reference Example 41(ee), 6-[3-((1-Ethyl-3-methyl-1H-pyrazol-5-yl)carboxamido)-4-methylbenzoyl]-3-E-[2-(pyridin-2-yl)ethenyl]-1H-indazole] | 41 | – | 9.4 | 94 | –
8 | CCCn1nc(C)cc1C(=O)Nc1cccc(C(=O)c2ccc3c(/C=C/c4ccccn4)n[nH]c3c2)c1 [Reference Example 41(r)] | 56 | 100 | – | 92 | –
